According to ChEMBL document CHEMBL3132858, “6-Alkyl-, 6-aryl- or 6-hetaryl-7-deazapurine ribonucleosides as inhibitors of human or MTB adenosine kinase and potential antimycobacterial agents” (Medchemcomm, 2013):

Test system: Mycobacterium tuberculosis
Assay: Antimycobacterial activity against Mycobacterium bovis BCG assessed as inhibition of microbial growth after 120 hrs by MTT assay
Assay type: functional, organism-based
Conditions: variant bovis BCG

SMILES	IC50
OC[C@H]1O[C@@H](n2cc(F)c3c(-c4ccoc4)ncnc32)[C@H](O)[C@@H]1O	91.2 µM
CCCCCCCCCCCCCCCCCCOP(=O)(O)OC[C@H]1O[C@@H](n2ccc3c(-c4ccco4)ncnc32)[C@H](O)[C@@H]1O	> 100 µM
OC[C@H]1O[C@@H](n2ccc3c(Cc4ccccc4)ncnc32)[C@H](O)[C@@H]1O	> 100 µM
OC[C@H]1O[C@@H](n2ccc3c(-c4cc[nH]c4)ncnc32)[C@H](O)[C@@H]1O	98.2 µM
OC[C@H]1O[C@@H](n2ccc3c(-c4cccs4)ncnc32)[C@H](O)[C@@H]1O	> 100 µM
OC[C@H]1O[C@@H](n2cc(Cl)c3c(-c4ccsc4)ncnc32)[C@H](O)[C@@H]1O	99.6 µM
OC[C@H]1O[C@@H](n2cc(F)c3c(-c4nccs4)ncnc32)[C@H](O)[C@@H]1O	69 µM
OC[C@H]1O[C@@H](n2ccc3c(-c4ccoc4)ncnc32)[C@H](O)[C@@H]1O	83.7 µM
OC[C@H]1O[C@@H](n2ccc3c(-c4cccc5c4Oc4ccccc4S5)ncnc32)[C@H](O)[C@@H]1O	> 100 µM
OCc1ncnc2c1ccn2[C@@H]1O[C@H](CO)[C@@H](O)[C@H]1O	32.6 µM
OC[C@H]1O[C@@H](n2ccc3c(-c4cccc5c4sc4ccccc45)ncnc32)[C@H](O)[C@@H]1O	> 100 µM
OC[C@H]1O[C@@H](n2ccc3c(-c4ccc[nH]4)ncnc32)[C@H](O)[C@@H]1O	56.4 µM
OC[C@H]1O[C@@H](n2ccc3c(-c4ccccn4)ncnc32)[C@H](O)[C@@H]1O	38.2 µM
COc1ccc(-c2ncnc3c2ccn3[C@@H]2O[C@H](CO)[C@@H](O)[C@H]2O)cc1	56.9 µM
CCCCCCCCCCCCCCCCCCOP(=O)(O)OC[C@H]1O[C@@H](n2ccc3c(-c4ccoc4)ncnc32)[C@H](O)[C@@H]1O	56.6 µM
OC[C@H]1O[C@@H](n2ccc3c(-c4cc5ccccc5o4)ncnc32)[C@H](O)[C@@H]1O	> 100 µM
OC[C@H]1O[C@@H](n2ccc3c(-c4cccc5c4oc4ccccc45)ncnc32)[C@H](O)[C@@H]1O	> 100 µM
OC[C@H]1O[C@@H](n2ccc3c(-c4cc5ccccc5[nH]4)ncnc32)[C@H](O)[C@@H]1O	> 100 µM
OC[C@H]1O[C@@H](n2cc(F)c3c(-c4ccsc4)ncnc32)[C@H](O)[C@@H]1O	> 100 µM
OC[C@H]1O[C@@H](n2cc(F)c3c(-c4cccs4)ncnc32)[C@H](O)[C@@H]1O	> 100 µM
OC[C@H]1O[C@@H](n2ccc3c(-c4ccc(F)cc4)ncnc32)[C@H](O)[C@@H]1O	93.8 µM
OC[C@H]1O[C@@H](n2cc(Cl)c3c(-c4ccc(F)cc4)ncnc32)[C@H](O)[C@@H]1O	89.6 µM
OC[C@H]1O[C@@H](n2cc(F)c3c(-c4cc[nH]c4)ncnc32)[C@H](O)[C@@H]1O	> 100 µM

SMILES	IC50
CCCCCCCCCCCCCCCCCCOP(=O)(O)OC[C@H]1O[C@@H](n2ccc3c(-c4ccsc4)ncnc32)[C@H](O)[C@@H]1O	82.8 µM
OC[C@H]1O[C@@H](n2cc(F)c3c(-c4c[nH]cn4)ncnc32)[C@H](O)[C@@H]1O	11.7 µM
OC[C@H]1O[C@@H](n2ccc3c(-c4c[nH]cn4)ncnc32)[C@H](O)[C@@H]1O	15.6 µM
OC[C@H]1O[C@@H](n2cc(Cl)c3c(-c4ccccc4)ncnc32)[C@H](O)[C@@H]1O	> 100 µM
OC[C@H]1O[C@@H](n2ccc3c(-c4ccccc4)ncnc32)[C@H](O)[C@@H]1O	75.2 µM
OC[C@H]1O[C@@H](n2cc(F)c3c(-c4ccccc4)ncnc32)[C@H](O)[C@@H]1O	74.8 µM
OC[C@H]1O[C@@H](n2ccc3c(-c4ccn[nH]4)ncnc32)[C@H](O)[C@@H]1O	91.1 µM
CCCCCCCCCCCCCCCCCCOP(=O)(O)OC[C@H]1O[C@@H](n2ccc3c(-c4ccccc4)ncnc32)[C@H](O)[C@@H]1O	> 100 µM
CCc1ncnc2c1ccn2[C@@H]1O[C@H](CO)[C@@H](O)[C@H]1O	88.8 µM
OC[C@H]1O[C@@H](n2cc(F)c3c(-c4ccco4)ncnc32)[C@H](O)[C@@H]1O	73.2 µM
OC[C@H]1O[C@@H](n2ccc3c(-c4cccnc4)ncnc32)[C@H](O)[C@@H]1O	> 100 µM
OC[C@H]1O[C@@H](n2ccc3c(-c4cc5ccccc5s4)ncnc32)[C@H](O)[C@@H]1O	> 100 µM
OC[C@H]1O[C@@H](n2cc(Cl)c3c(-c4cccs4)ncnc32)[C@H](O)[C@@H]1O	96.4 µM
OC[C@H]1O[C@@H](n2ccc3c(-c4nccs4)ncnc32)[C@H](O)[C@@H]1O	80.5 µM
CCCCCCCCCCCCCCCCCCOP(=O)(O)OC[C@H]1O[C@@H](n2ccc3c(-c4cc5ccccc5o4)ncnc32)[C@H](O)[C@@H]1O	93.4 µM
OC[C@H]1O[C@@H](n2cc(F)c3c(-c4ccc[nH]4)ncnc32)[C@H](O)[C@@H]1O	45.8 µM
OC[C@H]1O[C@@H](n2ccc3c(-c4ccsc4)ncnc32)[C@H](O)[C@@H]1O	81 µM
OC[C@H]1O[C@@H](n2cc(Cl)c3c(-c4ccoc4)ncnc32)[C@H](O)[C@@H]1O	97.1 µM
OC[C@H]1O[C@@H](n2cc(Cl)c3c(-c4ccco4)ncnc32)[C@H](O)[C@@H]1O	89.2 µM
OC[C@H]1O[C@@H](n2ccc3c(-c4ccco4)ncnc32)[C@H](O)[C@@H]1O	> 100 µM
OC[C@H]1O[C@@H](n2ccc3c(-c4cn[nH]c4)ncnc32)[C@H](O)[C@@H]1O	> 100 µM
OC[C@H]1O[C@@H](n2ccc3c(-c4ccc[se]4)ncnc32)[C@H](O)[C@@H]1O	> 100 µM
